Measured values: patent US20090054382A1, “COMPOSITIONS OF PHOSPHODIESTERASE TYPE IV INHIBITORS” (priority 2005, published 2009)

Experiments:
[1] = tested on: TNF-α release from human PBMCs; assay: Cell based assay for TNF-α release, PDE IV inhibitor in combination with p38 MAP Kinase inhibitors; conditions: inhibiting TNF-α release from human PBMCs
Experimental: Blood was collected in heparin or EDTA vacutainers from healthy human volunteers and Peripheral Blood Mononuclear Cells isolated using Ficoll Hypaque gradient. The cells were resuspended in serum free RPMI 1640 medium at a concentration of 2 million cells/ml.). […] of this cell suspension was co-incubated with 20 μl of compound, alone or in combination, for 10 min in a flat bottom 96 well microtiter plate. Compounds were dissolved in DMSO initially and diluted in medium for a final concentration of 0.2% DMSO. LPS (1 μg/ml, final concentration) was then added at a volume of 10 μl per well. After 30 min, 20 μl of fetal calf serum (final concentration of 10%) was added to each well. Cultures were incubated overnight at 37° C. in an atmosphere of 5% CO2 and 95% air. Supernatant were then removed and tested by ELISA for TNF-α release using a commercial kit (e.g. BD Biosciences). The level of TNF-α in treated wells was compared with the vehicle treated controls and inhibitory potency of compound was expressed as IC50 values calculated from the percent inhibition values by using Graph pad prism.

[2] = tested on: LPS induced airway hyperreactivity and neutrophil count in BAL; assay: In-vivo assay of PDE-IV inhibitors in combination with muscarinic receptor antagonists (LPS airway hyperreactivity and neutrophilia); conditions: Wistar rats, intratracheal, combination with Tiotropium
Experimental: MRA (1 ng/kg to 1 mg/kg) and PDE-IV inhibitor (1 ng/kg to 1 mg/kg) were instilled intratracheally under anesthesia either alone or in combination.
Wistar rats weighing 200±20 gm were used in the study. Rats had free access to food and water. On the day of experiment, animals were exposed to lipopolysaccharide (LPS, 100 μg/ml) for 40 min. One group of vehicle treated rats was exposed to phosphate buffered saline (PBS) for 40 min. […] The respiratory parameters were recorded online using Biosystem XA software, (Buxco Electronics, USA). Penh, at any chosen dose of acetylcholine was expressed as percent of PBS response and using a nonlinear regression analysis PC100 (2 folds of PBS value) values were computed. […]
PC100LPS=PC100 in vehicle treated and LPS challenged group PC100TEST=PC100 in group treated with a given dose of test compound PC100PBS=PC100 in vehicle treated group challenged with PBS Immediately after the airway hyperreactivity response was recorded, animals were sacrificed and bronchoalveolar lavage (BAL) performed. […] Total leukocyte and Neutrophil counts were expressed as cell count (millions cells ml^−1 of BAL). […]

COc1cc(C2=NO[C@]3(CCOC3)C2)ccc1OC(F)F (single isomer, unassigned) [Compound No. 266, (5S or 5R)-3-[4-(Difluoromethoxy)-3-methoxyphenyl]-1,7-dioxa-2-azaspiro[4.4]non-2-ene]
Indication [1]: synergistic response
synergy with muscarinic receptor antagonist (MRA) [2]: synergy
